Experimental data: US20220047609A1, “VAGINAL INSERTED ESTRADIOL PHARMACEUTICAL COMPOSITIONS AND METHODS” (THERAPEUTICSMD, INC., priority 2012, published 2022)
Each block holds one compound with its values, some of them ahead of it.

Columns and labels:
[1] = solubility of estradiol in the solubilizing agent; * denotes literature reference; cited from earlier work
[2] = Estradiol solubility in solubilizing agents (HPLC); format: physicochemical; details: solubility of estradiol in the solubilizing agent, equilibrated three days
Description: Initial solubility was measured by dissolving micronized estradiol into various solubilizing agents until the estradiol was saturated (the estradiol/solubilizing agent equilibrated for three days), filtering the undissolved estradiol, and analyzing the resulting pharmaceutical composition for estradiol concentration by HPLC.

dyspareunia = details: cited from earlier work

Structure (SMILES): CC(O)CO (stereo not shown) [Propylene Glycol]
Solubility (mg/g) [1]: 75* mg/g

Solubility [2]: 141 mg/g
Structure (SMILES): CCOCCOCCO [TRANSCUTOL HP, 2-(2-ethoxyethoxy)ethanol]

Structure (SMILES): OCCOc1ccc(/C(=C(/CCCl)c2ccccc2)c2ccccc2)cc1 [ospemifene]
vaginal discharge, frequency relative to the placebo group (dyspareunia; 12-week study): more than 6 times
week until which statistically significant improvements of dyspareunia were not observed (dyspareunia; human, in vivo): 12 week
